Results published in ChEMBL document CHEMBL1201862, “PubChem BioAssay data set” (2004).
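A five-concentration, 48-hour dose response in 96-well plates underlies each endpoint, interpolated linearly between surrounding concentrations. The concentration for 50% growth inhibition is given as GI50.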 Activity calls are given as the source filed them. No stated cut-off is given here; in the data, active = GI50 up to about 1.1 µM and inactive = higher.

What was measured:
Test in all cases: growth of human tumour cells (NCI), 48 h
[1] = test system: CAKI-1
[2] = test system: CCRF-CEM
[3] = test system: COLO 205
[4] = test system: HT-29
[5] = test system: IGROV-1
[6] = test system: K562
[7] = test system: KM12
[8] = test system: LOX IMVI
[9] = test system: NCI-H522
[10] = test system: OVCAR-5
[11] = test system: SF-295
[12] = test system: SK-MEL-28
[13] = test system: SK-MEL-2
[14] = test system: SN12C
[15] = test system: SR
[16] = test system: T47D
[17] = test system: TK-10
[18] = test system: UACC-257
[19] = test system: MDA-MB-231

SMILES	GI50 [1]	GI50 [2]	GI50 [3]	GI50 [4]	GI50 [5]	GI50 [6]	GI50 [7]	GI50 [8]	GI50 [9]	GI50 [10]	GI50 [11]	GI50 [12]	GI50 [13]	GI50 [14]	GI50 [15]	GI50 [16]	GI50 [17]	GI50 [18]	GI50 [19]
Cc1cc(S(=O)(=O)Nc2nc(N)nc(N(C)C)n2)c(S)cc1Cl	> 10 µM (inactive)	> 10 µM (inactive)	> 10 µM (inactive)	> 10 µM (inactive)	> 10 µM (inactive)	> 10 µM (inactive)	> 10 µM (inactive)	> 10 µM (inactive)	> 10 µM (inactive)	> 10 µM (inactive)	> 10 µM (inactive)	> 10 µM (inactive)	> 10 µM (inactive)	> 10 µM (inactive)	> 10 µM (inactive)	> 10 µM (inactive)	> 10 µM (inactive)	> 10 µM (inactive)	–
C=C1C(=O)OC2C1CCC(C)C1(O)C=CC(=O)C21C (centres undefined)	–	2.73 µM (inactive)	> 10 µM (inactive)	> 10 µM (inactive)	> 10 µM (inactive)	4.45 µM (inactive)	> 10 µM (inactive)	> 10 µM (inactive)	–	–	> 10 µM (inactive)	5.92 µM (inactive)	> 10 µM (inactive)	> 10 µM (inactive)	3.13 µM (inactive)	6.31 µM (inactive)	6.75 µM (inactive)	–	–
CC1(CCOCc2ccccc2)NC(=O)NC1=O (centres undefined)	> 100 µM (inactive)	–	–	> 100 µM (inactive)	> 100 µM (inactive)	> 100 µM (inactive)	> 100 µM (inactive)	> 100 µM (inactive)	> 100 µM (inactive)	> 100 µM (inactive)	> 100 µM (inactive)	> 100 µM (inactive)	> 100 µM (inactive)	> 100 µM (inactive)	> 100 µM (inactive)	–	> 100 µM (inactive)	> 100 µM (inactive)	> 100 µM (inactive)
C[C@@]12c3c4ccc(C=O)c3Oc3ccc(C=O)c(c31)Oc1c(C=O)ccc(c12)O4	–	–	> 100 µM (inactive)	> 100 µM (inactive)	> 100 µM (inactive)	> 100 µM (inactive)	> 100 µM (inactive)	> 100 µM (inactive)	–	> 100 µM (inactive)	> 100 µM (inactive)	> 100 µM (inactive)	> 100 µM (inactive)	> 100 µM (inactive)	2.96 µM (inactive)	> 100 µM (inactive)	> 100 µM (inactive)	> 100 µM (inactive)	> 100 µM (inactive)
C=C1CN(C(=O)c2cc3cc(OC)c(OC)c(OC)c3[nH]2)c2cc([N+](=O)[O-])ccc21	> 100 µM (inactive)	–	> 100 µM (inactive)	> 100 µM (inactive)	> 100 µM (inactive)	> 100 µM (inactive)	> 100 µM (inactive)	> 100 µM (inactive)	–	> 100 µM (inactive)	–	> 100 µM (inactive)	34.8 µM (inactive)	> 100 µM (inactive)	> 100 µM (inactive)	> 100 µM (inactive)	26.5 µM (inactive)	> 100 µM (inactive)	17.5 µM (inactive)
COc1ccc(/C=C/c2ccnc3ccccc23)cc1OC	15.8 µM (inactive)	13.2 µM (inactive)	12.6 µM (inactive)	12.4 µM (inactive)	15.5 µM (inactive)	9.79 µM (inactive)	14.7 µM (inactive)	10 µM (inactive)	5.65 µM (inactive)	12.9 µM (inactive)	13.8 µM (inactive)	17.5 µM (inactive)	19.4 µM (inactive)	17.9 µM (inactive)	25.5 µM (inactive)	11.7 µM (inactive)	15.6 µM (inactive)	21.2 µM (inactive)	–
O=C(Nc1ccc(F)cc1)c1cc2ccc(O)cc2o/c1=N\c1ccccc1F	33.5 µM (inactive)	17 µM (inactive)	> 100 µM (inactive)	> 100 µM (inactive)	10.1 µM (inactive)	11.1 µM (inactive)	26.2 µM (inactive)	19.4 µM (inactive)	12.1 µM (inactive)	29.1 µM (inactive)	30.7 µM (inactive)	32.1 µM (inactive)	29.3 µM (inactive)	51.8 µM (inactive)	36.1 µM (inactive)	14.8 µM (inactive)	–	27.6 µM (inactive)	–
CC1(C)CC(=O)C2=C(C1)NC1=C(C(=O)CC(C)(C)C1)C2c1ccc([N+](=O)[O-])cc1	> 100 µM (inactive)	–	> 100 µM (inactive)	> 100 µM (inactive)	> 100 µM (inactive)	> 100 µM (inactive)	> 100 µM (inactive)	> 100 µM (inactive)	> 100 µM (inactive)	> 100 µM (inactive)	> 100 µM (inactive)	> 100 µM (inactive)	> 100 µM (inactive)	> 100 µM (inactive)	–	> 100 µM (inactive)	> 100 µM (inactive)	> 100 µM (inactive)	> 100 µM (inactive)
Cc1sc(N/N=C2\C(=O)Nc3ccccc32)nc1-c1ccccc1	17.4 µM (inactive)	–	13.4 µM (inactive)	20.3 µM (inactive)	9.48 µM (inactive)	–	13.6 µM (inactive)	12.6 µM (inactive)	–	20.9 µM (inactive)	11 µM (inactive)	17.3 µM (inactive)	18.7 µM (inactive)	12.1 µM (inactive)	–	13.6 µM (inactive)	23.8 µM (inactive)	21.4 µM (inactive)	14.5 µM (inactive)
COc1cc(Cc2nccc3cc(OC)c(OC)cc23)c(/N=N/N(C)C)cc1OC	5.45 µM (inactive)	3.18 µM (inactive)	14.4 µM (inactive)	10.4 µM (inactive)	13.5 µM (inactive)	4.28 µM (inactive)	18.7 µM (inactive)	–	–	20.5 µM (inactive)	19.9 µM (inactive)	11.2 µM (inactive)	30.6 µM (inactive)	14.3 µM (inactive)	–	5.36 µM (inactive)	20.4 µM (inactive)	20.3 µM (inactive)	14.4 µM (inactive)
COc1ccc(/C(=N/OCCCC(=O)O)c2cccs2)cc1	> 100 µM (inactive)	> 100 µM (inactive)	> 100 µM (inactive)	> 100 µM (inactive)	–	> 100 µM (inactive)	> 100 µM (inactive)	> 100 µM (inactive)	–	> 100 µM (inactive)	> 100 µM (inactive)	–	> 100 µM (inactive)	> 100 µM (inactive)	–	> 100 µM (inactive)	> 100 µM (inactive)	> 100 µM (inactive)	> 100 µM (inactive)
COc1cc2c(cc1OC)C(C#N)(Cc1ccccc1)N(C(=O)c1ccccc1)C=C2 (centres undefined)	–	35.6 µM (inactive)	35.2 µM (inactive)	60.8 µM (inactive)	> 100 µM (inactive)	44.3 µM (inactive)	60.7 µM (inactive)	> 100 µM (inactive)	33.9 µM (inactive)	> 100 µM (inactive)	> 100 µM (inactive)	> 100 µM (inactive)	> 100 µM (inactive)	> 100 µM (inactive)	45.7 µM (inactive)	–	> 100 µM (inactive)	50.6 µM (inactive)	–
CC(NC(=O)c1c(O)[nH]c(=S)[nH]c1=O)c1ccc([N+](=O)[O-])cc1 (centres undefined)	> 100 µM (inactive)	40.8 µM (inactive)	> 100 µM (inactive)	> 100 µM (inactive)	> 100 µM (inactive)	43.7 µM (inactive)	47.6 µM (inactive)	90.8 µM (inactive)	–	> 100 µM (inactive)	> 100 µM (inactive)	> 100 µM (inactive)	32.5 µM (inactive)	> 100 µM (inactive)	–	37.2 µM (inactive)	> 100 µM (inactive)	> 100 µM (inactive)	60.7 µM (inactive)
C/C=C1/CN2CCC34C(=C(C(=O)OC)C1CC23)Nc1ccc(O)cc14 (centres undefined)	> 100 µM (inactive)	> 100 µM (inactive)	> 100 µM (inactive)	> 100 µM (inactive)	> 100 µM (inactive)	–	> 100 µM (inactive)	> 100 µM (inactive)	> 100 µM (inactive)	> 100 µM (inactive)	77.8 µM (inactive)	> 100 µM (inactive)	> 100 µM (inactive)	> 100 µM (inactive)	–	> 100 µM (inactive)	> 100 µM (inactive)	> 100 µM (inactive)	> 100 µM (inactive)
CCOC(=O)C(Cc1ccc(N(CCCl)CCCl)cc1)NC(=O)C(Cc1ccccc1)NC(C)=O (centres undefined)	0.111 µM (active)	0.0353 µM (active)	0.213 µM (active)	–	0.0414 µM (active)	> 0.279 µM (active)	> 0.338 µM (active)	0.111 µM (active)	–	> 0.293 µM (active)	> 0.326 µM (active)	–	> 0.265 µM (active)	0.155 µM (active)	0.153 µM (active)	0.157 µM (active)	–	0.235 µM (active)	> 0.284 µM (active)
CCOc1cc2c(cc1O)C(O)C[C@@H]1[C@@H]2CC[C@]2(C)[C@@H](O)CC[C@@H]12 (some centres undefined)	0.514 µM (active)	0.298 µM (active)	19.3 µM (inactive)	4.44 µM (inactive)	0.431 µM (active)	0.0991 µM (active)	3.24 µM (inactive)	0.299 µM (active)	0.129 µM (active)	52.2 µM (inactive)	0.281 µM (active)	–	> 100 µM (inactive)	0.61 µM (active)	4.94 µM (inactive)	–	0.661 µM (active)	0.444 µM (active)	1.25 µM (inactive)
Cc1cc(O)no1 [HYMEXAZOL]	> 100 µM (inactive)	–	> 100 µM (inactive)	> 100 µM (inactive)	> 100 µM (inactive)	> 100 µM (inactive)	–	> 100 µM (inactive)	> 100 µM (inactive)	> 100 µM (inactive)	> 100 µM (inactive)	> 100 µM (inactive)	> 100 µM (inactive)	–	–	–	> 100 µM (inactive)	> 100 µM (inactive)	> 100 µM (inactive)
